{
  "source": "paper PMC5218480",
  "about": "(PLoS ONE, 2017)",
  "system": "MV-4-11 cells",
  "experiment": "Gene expression microarray analysis (Affymetrix PrimeView) and GSEA",
  "type": "cell-based, human",
  "set-up": "RFU PODN (11730768_x_at) / Fold change /veh PODN (11730768_x_at) / RFU LINC00158 (11744669_a_at) / Fold change /veh LINC00158 (11744669_a_at) / RFU DUSP10 (11751237_a_at) / Fold change /veh DUSP10 (11751237_a_at) / RFU ID3 (11757404_x_at) / Fold change /veh ID3 (11757404_x_at) / RFU PLEKHG5 (11737974_s_at) / Fold change /veh PLEKHG5 (11737974_s_at) / RFU LRRC4B (11730491_at) / Fold change /veh LRRC4B (11730491_at) / RFU GIMAP4 (11747438_a_at) / Fold change /veh GIMAP4 (11747438_a_at) / RFU KRT8 (11758183_x_at) / Fold change /veh KRT8 (11758183_x_at) / RFU CNN1 (11734310_a_at) / Fold change /veh CNN1 (11734310_a_at) / RFU VPS37D (11726825_at) / Fold change /veh VPS37D (11726825_at) / RFU C10orf10 (11716522_x_at) / Fold change /veh C10orf10 (11716522_x_at) / RFU KIR2DL2 /// KIR2DL4 /// KIR2DL5A /// KIR2DL5B /// KIR2DS1 /// KIR2DS2 /// KIR2DS3 /// KIR2DS4 /// KIR3DL3 /// KIR3DL3 /// KIR3DS1 (11738374_at) / Fold change /veh KIR2DL2 /// KIR2DL4 /// KIR2DL5A /// KIR2DL5B /// KIR2DS1 /// KIR2DS2 /// KIR2DS3 /// KIR2DS4 /// KIR3DL3 /// KIR3DL3 /// KIR3DS1 (11738374_at) / RFU C1QL1 (11718748_at) / Fold change /veh C1QL1 (11718748_at) / RFU TMPRSS4 (11747572_a_at) / Fold change /veh TMPRSS4 (11747572_a_at) / RFU HAMP (11756126_x_at) / Fold change /veh HAMP (11756126_x_at) / RFU RNFT2 (11725882_a_at) / Fold change /veh RNFT2 (11725882_a_at) / RFU NR4A2 (11747474_a_at) / Fold change /veh NR4A2 (11747474_a_at) / RFU ABCC12 (11746883_a_at) / Fold change /veh ABCC12 (11746883_a_at) / RFU TMEM136 (11760407_x_at) / Fold change /veh TMEM136 (11760407_x_at) / RFU CLDN22 /// WWC2 (11732394_at) / Fold change /veh CLDN22 /// WWC2 (11732394_at) / RFU HLA-DPB1 (11760878_x_at) / Fold change /veh HLA-DPB1 (11760878_x_at) / RFU SPINT1 (11716480_a_at) / Fold change /veh SPINT1 (11716480_a_at) / RFU GAP43 (11754022_s_at) / Fold change /veh GAP43 (11754022_s_at) / RFU A4GNT (11735810_at) / Fold change /veh A4GNT (11735810_at) / RFU PRB3 (11715151_x_at) / Fold change /veh PRB3 (11715151_x_at) / RFU TUBB4B (11761932_at) / Fold change /veh TUBB4B (11761932_at) / RFU CAPN14 (11732068_a_at) / Fold change /veh CAPN14 (11732068_a_at) / RFU TMCC2 (11721928_a_at) / Fold change /veh TMCC2 (11721928_a_at) / RFU IRGQ (11745062_a_at) / Fold change /veh IRGQ (11745062_a_at) / RFU FAM174B (11720279_a_at) / Fold change /veh FAM174B (11720279_a_at) / RFU TMPRSS4 (11748680_a_at) / Fold change /veh TMPRSS4 (11748680_a_at) / RFU FAM212B (11763350_a_at) / Fold change /veh FAM212B (11763350_a_at) / RFU PLEKHG5 (11743358_a_at) / Fold change /veh PLEKHG5 (11743358_a_at) / RFU ZSCAN30 (11745921_a_at) / Fold change /veh ZSCAN30 (11745921_a_at) / RFU CMKLR1 (11741424_a_at) / Fold change /veh CMKLR1 (11741424_a_at) / RFU LOC101060620 /// MAPK8IP1 (11723275_at) / Fold change /veh LOC101060620 /// MAPK8IP1 (11723275_at) / RFU SPTSSB (11747773_x_at) / Fold change /veh SPTSSB (11747773_x_at) / RFU PRSS12 (11739890_at) / Fold change /veh PRSS12 (11739890_at) / RFU BIN1 (11741810_x_at) / Fold change /veh BIN1 (11741810_x_at) / RFU WNT11 (11732464_a_at) / Fold change /veh WNT11 (11732464_a_at) / RFU C10orf10 (11716521_a_at) / Fold change /veh C10orf10 (11716521_a_at) / RFU C5orf56 (11738089_at) / Fold change /veh C5orf56 (11738089_at) / RFU CYB561 (11721691_x_at) / Fold change /veh CYB561 (11721691_x_at) / RFU ANKRD19P (11752326_a_at) / Fold change /veh ANKRD19P (11752326_a_at) / RFU OR2T12 /// OR2T33 /// OR2T8 (11738714_s_at) / Fold change /veh OR2T12 /// OR2T33 /// OR2T8 (11738714_s_at) / RFU VCAN (11748164_a_at) / Fold change /veh VCAN (11748164_a_at) / RFU JSRP1 (11732532_at) / Fold change /veh JSRP1 (11732532_at) / RFU KRTAP10-11 (11738290_x_at) / Fold change /veh KRTAP10-11 (11738290_x_at) / RFU MYO3A (11730013_a_at) / Fold change /veh MYO3A (11730013_a_at) / RFU EBF3 (11725865_a_at) / Fold change /veh EBF3 (11725865_a_at) / RFU CAMK2N1 (11719241_x_at) / Fold change /veh CAMK2N1 (11719241_x_at) / RFU C5orf56 (11738088_a_at) / Fold change /veh C5orf56 (11738088_a_at) / RFU OLFML3 (11715873_a_at) / Fold change /veh OLFML3 (11715873_a_at) / RFU LOC100653217 /// NTM (11731650_a_at) / Fold change /veh LOC100653217 /// NTM (11731650_a_at) / RFU MAPK11 (11762145_a_at) / Fold change /veh MAPK11 (11762145_a_at) / RFU FIZ1 (11724087_x_at) / Fold change /veh FIZ1 (11724087_x_at) / RFU OASL (11726364_x_at) / Fold change /veh OASL (11726364_x_at) / RFU SOX15 (11748057_x_at) / Fold change /veh SOX15 (11748057_x_at) / RFU CD79A (11719716_a_at) / Fold change /veh CD79A (11719716_a_at) / RFU HIST1H1D (11736915_at) / Fold change /veh HIST1H1D (11736915_at) / RFU CASKIN2 (11723855_a_at) / Fold change /veh CASKIN2 (11723855_a_at) / RFU LOC730098 (11760151_x_at) / Fold change /veh LOC730098 (11760151_x_at) / RFU OR4N2 (11742367_at) / Fold change /veh OR4N2 (11742367_at) / RFU PRRT2 (11749266_a_at) / Fold change /veh PRRT2 (11749266_a_at) / RFU SNX32 (11753110_a_at) / Fold change /veh SNX32 (11753110_a_at) / RFU CDHR5 (11726645_a_at) / Fold change /veh CDHR5 (11726645_a_at) / RFU RCAN1 (11760418_a_at) / Fold change /veh RCAN1 (11760418_a_at) / RFU FAM167A (11723789_a_at) / Fold change /veh FAM167A (11723789_a_at) / RFU FAM26E (11764081_at) / Fold change /veh FAM26E (11764081_at) / RFU ISYNA1 (11749810_s_at) / Fold change /veh ISYNA1 (11749810_s_at) / RFU ACY1 (11761880_at) / Fold change /veh ACY1 (11761880_at) / RFU 11764098_at / Fold change /veh 11764098_at / RFU SAMD14 (11745864_x_at) / Fold change /veh SAMD14 (11745864_x_at) / RFU NPB (11741838_a_at) / Fold change /veh NPB (11741838_a_at) / RFU TMPRSS6 (11731388_a_at) / Fold change /veh TMPRSS6 (11731388_a_at) / RFU KRTAP10-2 (11738614_at) / Fold change /veh KRTAP10-2 (11738614_at) / RFU ARHGAP8 /// PRR5-ARHGAP8 (11727945_x_at) / Fold change /veh ARHGAP8 /// PRR5-ARHGAP8 (11727945_x_at) / RFU KRTAP5-7 /// NADSYN1 (11734609_at) / Fold change /veh KRTAP5-7 /// NADSYN1 (11734609_at) / RFU RASL12 (11751679_a_at) / Fold change /veh RASL12 (11751679_a_at) / RFU CDKN2B (11736163_a_at) / Fold change /veh CDKN2B (11736163_a_at) / RFU PRF1 (11729649_at) / Fold change /veh PRF1 (11729649_at) / RFU, ZNF638 /// ZNF638-IT1 / Fold change vs veh, ZNF638 /// ZNF638-IT1 / RFU, PANK3 / Fold change vs veh, PANK3 / RFU, SH3YL1 / Fold change vs veh, SH3YL1 / RFU, ZEB2 / Fold change vs veh, ZEB2 / RFU, NRIP1 / Fold change vs veh, NRIP1 / RFU, PTTG1IP / Fold change vs veh, PTTG1IP / RFU, CAPN2 / Fold change vs veh, CAPN2 / RFU, MED14 / Fold change vs veh, MED14 / RFU, SNORA58 / Fold change vs veh, SNORA58 / RFU, C1orf63 / Fold change vs veh, C1orf63 / RFU, LRRFIP1 / Fold change vs veh, LRRFIP1 / RFU, NDUFAF7 / Fold change vs veh, NDUFAF7 / RFU, SLC12A2 / Fold change vs veh, SLC12A2 / RFU, IBTK / Fold change vs veh, IBTK / RFU, ESF1 / Fold change vs veh, ESF1 / Fold change vs veh, TMEM50B / RFU, TAOK1 / Fold change vs veh, TAOK1 / RFU, ACBD3 / Fold change vs veh, ACBD3 / RFU, TMA16 / Fold change vs veh, TMA16 / RFU, RWDD3 / Fold change vs veh, RWDD3 / RFU, BCAT1 / Fold change vs veh, BCAT1 / RFU, EDEM3 / Fold change vs veh, EDEM3 / RFU, TMEM33 / Fold change vs veh, TMEM33 / RFU, WDR75 / Fold change vs veh, WDR75 / RFU, AHCTF1 / Fold change vs veh, AHCTF1 / RFU, TFRC / Fold change vs veh, TFRC / RFU, ZDHHC17 / Fold change vs veh, ZDHHC17 / RFU, NOM1 / Fold change vs veh, NOM1 / RFU, ARL8B / Fold change vs veh, ARL8B / RFU, ZBTB11 / Fold change vs veh, ZBTB11 / RFU, TAMM41 / Fold change vs veh, TAMM41 / RFU, KIAA1704 /// LOC100996395 / Fold change vs veh, KIAA1704 /// LOC100996395 / RFU, ING1 / Fold change vs veh, ING1 / RFU, TRMT61B / Fold change vs veh, TRMT61B / RFU, FUBP3 / Fold change vs veh, FUBP3 / RFU, TP53 / Fold change vs veh, TP53 / RFU, TNKS2 / Fold change vs veh, TNKS2 / RFU, ZFP14 / Fold change vs veh, ZFP14 / RFU, ACTR2 / Fold change vs veh, ACTR2 / RFU, PPP3R1 / Fold change vs veh, PPP3R1 / RFU, PIK3R1 / Fold change vs veh, PIK3R1 / RFU, HNRNPA1 / Fold change vs veh, HNRNPA1 / RFU, RNF170 / Fold change vs veh, RNF170 / RFU, ZNF28 / Fold change vs veh, ZNF28 / RFU, RNGTT / Fold change vs veh, RNGTT / RFU, OGT / Fold change vs veh, OGT / RFU, BRD1 / Fold change vs veh, BRD1 / RFU, MARS / Fold change vs veh, MARS / RFU, ZNF655 / Fold change vs veh, ZNF655 / RFU, FAHD1 / Fold change vs veh, FAHD1 / RFU, BDP1 / Fold change vs veh, BDP1 / RFU, LRRCC1 / Fold change vs veh, LRRCC1 / RFU, ARID1A / Fold change vs veh, ARID1A / RFU, ZNF146 / Fold change vs veh, ZNF146 / RFU, ZNF330 / Fold change vs veh, ZNF330 / RFU, GPN3 / Fold change vs veh, GPN3 / RFU, C9orf123 / Fold change vs veh, C9orf123 / RFU, N4BP2L2 / Fold change vs veh, N4BP2L2 / RFU, ARFIP1 / Fold change vs veh, ARFIP1 / RFU, FAM179B / Fold change vs veh, FAM179B / RFU, BCL10 / Fold change vs veh, BCL10 / RFU, UHRF1BP1L / Fold change vs veh, UHRF1BP1L / RFU, BET1 / Fold change vs veh, BET1 / RFU, CNOT2 / Fold change vs veh, CNOT2 / RFU, ZNF268 / Fold change vs veh, ZNF268 / Fold change vs veh, ZNF507 / RFU, DGCR2 / Fold change vs veh, DGCR2 / RFU, WDSUB1 / Fold change vs veh, WDSUB1 / Fold change vs veh, HSP90B1 /// MIR3652 / RFU, ADSS / Fold change vs veh, ADSS / RFU, GK / Fold change vs veh, GK / RFU, ZNF148 / Fold change vs veh, ZNF148 / RFU, TAF9 / Fold change vs veh, TAF9 / RFU, SLC1A5 / Fold change vs veh, SLC1A5 / RFU, SLMO2 / Fold change vs veh, SLMO2 / RFU, ABCC4 / Fold change vs veh, ABCC4 / RFU, LOC101060439 /// RAP1B / Fold change vs veh, LOC101060439 /// RAP1B / RFU, RFX7 / Fold change vs veh, RFX7 / RFU, GTPBP10 / Fold change vs veh, GTPBP10 / RFU, CNEP1R1 / Fold change vs veh, CNEP1R1 / RFU, BIVM-ERCC5 /// ERCC5 / Fold change vs veh, BIVM-ERCC5 /// ERCC5 / RFU, ILF3 / Fold change vs veh, ILF3 / RFU 11762660_at / Fold change /veh 11762660_at / RFU VCAN (11757783_s_at) / Fold change /veh VCAN (11757783_s_at) / RFU DDX43 (11728927_at) / Fold change /veh DDX43 (11728927_at) / RFU KRT8 (11758188_x_at) / Fold change /veh KRT8 (11758188_x_at) / RFU NKD1 (11759106_at) / Fold change /veh NKD1 (11759106_at) / RFU SRD5A1 (11742802_a_at) / Fold change /veh SRD5A1 (11742802_a_at) / RFU TPSAB1 /// TPSB2 (11721975_s_at) / Fold change /veh TPSAB1 /// TPSB2 (11721975_s_at) / RFU GSTM3 (11746129_a_at) / Fold change /veh GSTM3 (11746129_a_at) / RFU IL23R (11737362_x_at) / Fold change /veh IL23R (11737362_x_at) / RFU TMEM51 (11727254_a_at) / Fold change /veh TMEM51 (11727254_a_at) / RFU PIWIL2 (11732686_x_at) / Fold change /veh PIWIL2 (11732686_x_at) / RFU ORM1 (11744905_x_at) / Fold change /veh ORM1 (11744905_x_at) / RFU CCDC152 (11743942_at) / Fold change /veh CCDC152 (11743942_at) / RFU ECM1 (11717891_a_at) / Fold change /veh ECM1 (11717891_a_at) / RFU IL23R (11748794_a_at) / Fold change /veh IL23R (11748794_a_at) / RFU TNFAIP8L3 (11732012_x_at) / Fold change /veh TNFAIP8L3 (11732012_x_at) / RFU MBOAT4 (11741988_at) / Fold change /veh MBOAT4 (11741988_at) / RFU 11764193_at / Fold change /veh 11764193_at / RFU TMEM53 (11763286_at) / Fold change /veh TMEM53 (11763286_at) / RFU MAGEB2 (11727129_at) / Fold change /veh MAGEB2 (11727129_at) / RFU TMEM200A (11744735_a_at) / Fold change /veh TMEM200A (11744735_a_at) / RFU CCDC152 (11751479_a_at) / Fold change /veh CCDC152 (11751479_a_at) / RFU FAM211A (11726209_a_at) / Fold change /veh FAM211A (11726209_a_at) / RFU RGS16 (11746705_a_at) / Fold change /veh RGS16 (11746705_a_at) / RFU VCAN (11755009_s_at) / Fold change /veh VCAN (11755009_s_at) / RFU RHOB (11743442_s_at) / Fold change /veh RHOB (11743442_s_at) / RFU RGS16 (11720943_a_at) / Fold change /veh RGS16 (11720943_a_at) / RFU RGS16 (11720944_at) / Fold change /veh RGS16 (11720944_at) / RFU, VPS4B / Fold change vs veh, VPS4B / RFU, CREB1 / Fold change vs veh, CREB1 / RFU, DNAJC13 / Fold change vs veh, DNAJC13 / RFU, GNAQ / Fold change vs veh, GNAQ / RFU, CDK5R1 / Fold change vs veh, CDK5R1 / RFU, ZRANB3 / Fold change vs veh, ZRANB3 / RFU, CUL4A / Fold change vs veh, CUL4A / RFU, CCNY / Fold change vs veh, CCNY / RFU, UFL1 / Fold change vs veh, UFL1 / RFU, COG3 / Fold change vs veh, COG3 / RFU, DIAPH2 / Fold change vs veh, DIAPH2 / RFU, SKA2 / Fold change vs veh, SKA2 / RFU, AFF3 / Fold change vs veh, AFF3 / RFU, LMF1 / Fold change vs veh, LMF1 / RFU, IPO11 / Fold change vs veh, IPO11 / RFU, DFFB / Fold change vs veh, DFFB / RFU, FOXP1 / Fold change vs veh, FOXP1 / RFU, CARD8 / Fold change vs veh, CARD8 / RFU, STRN3 / Fold change vs veh, STRN3 / RFU, ADK / Fold change vs veh, ADK / RFU, RASSF2 / Fold change vs veh, RASSF2 / RFU, WIPF1 / Fold change vs veh, WIPF1 / RFU, LARP1B / Fold change vs veh, LARP1B / RFU, RASA1 / Fold change vs veh, RASA1 / RFU, RB1 / Fold change vs veh, RB1 / RFU, PPFIA1 / Fold change vs veh, PPFIA1 / RFU, MAT2A / Fold change vs veh, MAT2A / RFU, CCT5 / Fold change vs veh, CCT5 / RFU, WDR92 / Fold change vs veh, WDR92 / RFU, CUX1 / Fold change vs veh, CUX1 / RFU, TTC7A / Fold change vs veh, TTC7A / RFU, TMEM135 / Fold change vs veh, TMEM135 / RFU, DEPTOR / Fold change vs veh, DEPTOR / RFU, CPM / Fold change vs veh, CPM / RFU, DNAJB6 / Fold change vs veh, DNAJB6 / RFU, CACNA2D3 / Fold change vs veh, CACNA2D3 / RFU, DTX4 / Fold change vs veh, DTX4 / RFU, TFCP2 / Fold change vs veh, TFCP2 / RFU, GMCL1 /// GMCL1P1 / Fold change vs veh, GMCL1 /// GMCL1P1 / RFU, AEBP2 / Fold change vs veh, AEBP2 / RFU, SNHG1 /// SNORD22 /// SNORD25 /// SNORD26 /// SNORD27 /// SNORD28 /// SNORD29 /// SNORD31 / Fold change vs veh, SNHG1 /// SNORD22 /// SNORD25 /// SNORD26 /// SNORD27 /// SNORD28 /// SNORD29 /// SNORD31 / Fold change (Aza/veh), C12orf56 (ProbeSet 11735607_a_at) / Fold change (ACY-1035/veh), C12orf56 (ProbeSet 11735607_a_at) / Fold change (Aza/veh), FGFR1OP (ProbeSet 11751329_s_at) / Fold change (ACY-1035/veh), FGFR1OP (ProbeSet 11751329_s_at) / Fold change (Aza/veh), VPS36 (ProbeSet 11739960_a_at) / Fold change (ACY-1035/veh), VPS36 (ProbeSet 11739960_a_at) / RFU SYPL1 (11715823_x_at) / Fold change /veh SYPL1 (11715823_x_at) / RFU IGFBP7 (11715501_s_at) / Fold change /veh IGFBP7 (11715501_s_at) / RFU REEP3 (11722064_at) / Fold change /veh REEP3 (11722064_at) / RFU IGLL1 (11728026_x_at) / Fold change /veh IGLL1 (11728026_x_at): dose or concentration left out as unconfirmed",
  "conditions": "ProbeSet 11754607_s_at; LIST B",
  "data": [
    {"smiles": "Nc1ccc(-c2cccs2)cc1NC(=O)c1ccc2c(c1)cc(C1CC1)n2CCN1CCOCC1", "note": "[ACY-1035]", "values": [
      {"measurement": "Fold change vs veh, HSP90B1 /// MIR3652", "value": 0.87}
    ]}
  ]
}
